Results: patent US20260206754A1, “HETEROARYL COMPOUNDS FOR THE CONTROL OF INVERTEBRATE PESTS” (priority 2022, published 2026)
Read-outs that look alike come from different tables or passages of the source.

Legend:
Format in all cases: in vivo
[1] = tested on: tobacco budworm (Heliothis virescens); test: B.1 Tobacco budworm, 96-well microtiter plate diet test with eggs; conditions: for mortality at 274 ppm: comparative experiment C.9; for mortality at 100 ppm: comparative experiment C.6; for mortality at 2500 ppm: 120 h, egg and larval mortality after 5 days, read-out: mortality in comparison with untreated controls
Experimental: (§1) If not otherwise specified, the test solutions were prepared as follow: The active compound was dissolved at the desired concentration in a mixture of 1:1 (vol:vol) distilled water:acetone. The test solution was prepared on the day of use.
B.1 Tobacco Budworm (Heliothis virescens)
For evaluating control of tobacco budworm (Heliothis virescens) the test unit consisted of 96-well-microtiter plates containing an insect diet and 15-25 H. virescens eggs.
The compounds were formulated using a solution containing 75% v/v water and 25% v/v DMSO. Different concentrations of formulated compounds were sprayed onto the insect diet at 10 μl, using a custom-built micro atomizer, at two replications.
After application, microtiter plates were incubated at about 28±1° C. and about 80±5% relative humidity for 5 days. Egg and larval mortality was then visually assessed.

[2] = tested on: boll weevil (Anthonomus grandis); test: B.2 Boll weevil, 96-well microtiter plate diet test with eggs; conditions: for mortality at 9.9 ppm: comparative experiment C.9; for mortality at 2500 ppm: 120 h, egg and larval mortality after 5 days, read-out: mortality in comparison with untreated controls
Experimental: as §1
B.2 Boll Weevil (Anthonomus grandis)
For evaluating control of boll weevil (Anthonomus grandis) the test unit consisted of 96-well-microtiter plates containing an insect diet and 5-10 A. grandis eggs.
The compounds were formulated using a solution containing 75% v/v water and 25% v/v DMSO. Different concentrations of formulated compounds were sprayed onto the insect diet at 5 μl, using a custom-built micro atomizer, at two replications.
After application, microtiter plates were incubated at about 25±1° C. and about 75±5% relative humidity for 5 days. Egg and larval mortality was then visually assessed.

[3] = tested on: green peach aphid (Myzus persicae); test: B.6 Green peach aphid, systemic test with artificial diet under membrane
Experimental: as §1
B.6 Green Peach Aphid (Myzus persicae)
For evaluating control of green peach aphid (Myzus persicae) through systemic means, the test unit consisted of 96-well-microtiter plates containing liquid artificial diet under an artificial membrane.
The compounds were formulated using a solution containing 75% v/v water and 25% v/v DMSO. Different concentrations of formulated compounds were pipetted into the aphid diet, using a custom built pipetter, at two replications.
After application, 5-8 adult aphids were placed on the artificial membrane inside the microtiter plate wells. The aphids were then allowed to suck on the treated aphid diet and incubated at about 23±1° C. and about 50±5% relative humidity for 3 days. Aphid mortality and fecundity was then visually assessed.

[4] = tested on: yellow fever mosquito (Aedes aegypti); test: whole plant or invertebrate; conditions: for mortality at 90 ppm: comparative experiment C.4, read-out: B.5, 90 ppm (mortality); for mortality at 2500 ppm: 48 h, larval mortality after 2 days, read-out: mortality in comparison with untreated controls
Experimental: as §1
B.5 Yellow Fever Mosquito (Aedes aegypti)
For evaluating control of yellow fever mosquito (Aedes aegypti) the test unit consisted of 96-well-microtiter plates containing 200 μl of tap water per well and 5-15 freshly hatched A. aegypti larvae.
The active compounds were formulated using a solution containing 75% (v/v) water and 25% (v/v) DMSO. Different concentrations of formulated compounds or mixtures were sprayed onto the insect diet at 2.5 μl, using a custom-built micro atomizer, at two replications.
After application, microtiter plates were incubated at 281° C., 80±5% RH for 2 days. Larval mortality was then visually assessed.

[5] = tested on: Southern armyworm (Spodoptera eridania), 2nd instar larvae; test: B.3 Southern armyworm, 2nd instar larvae, foliar spray on lima bean plants; conditions: 96 h, 4 days after treatment, read-out: mortality in comparison with untreated controls
Experimental: B.3 Southern Armyworm (Spodoptera eridania), 2nd Instar Larvae
The active compounds were formulated by a Tecan liquid handler in 100% cyclohexanone as a 10,000-ppm solution supplied in tubes. The 10,000-ppm solution was serially diluted in 100% cyclohexanone to make interim solutions. These served as stock solutions for which final dilutions were made by the Tecan in 50% acetone:50% water (v/v) into 10 or 20 ml glass vials. A non-ionic surfactant (Kinetic@) was included in the solution at a volume of 0.01% (v/v). The vials were then inserted into an automated electrostatic sprayer equipped with an atomizing nozzle for application to plants/insects. Lima bean plants (variety Sieva) were grown 2 plants to a pot and selected for treatment at the 1st true leaf stage. Test solutions were sprayed onto the foliage by an auto-mated electrostatic plant sprayer equipped with an atomizing spray nozzle. The plants were dried in the sprayer fume hood and then removed from the sprayer. Each pot was placed into perforated plastic bags with a zip closure. Ten to 11 armyworm larvae were placed into the bag and the bags zipped closed. Test plants were maintained in a growth room at about 25° C. and about 20-40% relative humidity for 4 days, avoiding direct exposure to fluorescent light (14:10 light:dark photoperiod) to prevent trapping of heat inside the bags. Mortality and reduced feeding were assessed 4 days after treatment, compared to untreated control plants.

[6] = Anthonomus grandis, 90 ppm, comparative experiment C.4
[7] = comparative experiment C.8, read-out: B.6, 2500 ppm (mortality)
[8] = Anthonomus grandis, 90 ppm, comparative experiment C.8
[9] = 72 h, aphid mortality after 3 days, read-out: mortality in comparison with untreated controls
[10] = Anthonomus grandis, 90 ppm, comparative experiment C.7

SMILES	mortality at 2500 ppm [3, 9]	mortality at 2500 ppm [1]	mortality at 2500 ppm ([2]; Anthonomus grandis)	mortality at 2500 ppm [4]	further results
CC(NC(=O)c1cc(Cl)cc(S(C)(=O)=O)c1)c1nccnc1-n1nccn1 (stereo not drawn) [WO2021/259997 I-1, reference compound]					mortality at 274 ppm [1]: 0%; mortality at 9.9 ppm ([2]; Anthonomus grandis): 0%
CC(NC(=O)c1cc(C(F)(F)F)cc(C(F)(F)F)c1)c1nccnc1-n1cc(C(F)(F)F)cn1 (stereo not drawn) [WO2021/069575 I-92, reference compound]					mortality at 30 ppm ([3]; comparative experiment C.4): 0%; mortality at 100 ppm [1]: 50%; B.2, 90 ppm (mortality) ([2]; 90 ppm, comparative experiment C.6): 0%; mortality at 90 ppm [2, 6]: 0%; mortality at 90 ppm [4]: 0%
CC(NC(=O)c1cc(C(F)(F)F)cc(C(F)(F)F)c1)c1nccnc1-c1cn(-c2ccn(C)n2)nn1 (stereo not drawn) [WO2021/259997 I-12, reference compound]					mortality at 2500 ppm [3, 7]: 0%; mortality at 90 ppm [2, 8]: 0%
CC(NC(=O)c1cc(C(F)(F)F)cc(C(F)(F)F)c1)c1nccnc1-n1cc(-c2nccs2)cn1 (stereo not drawn) [I-51]	≥ 75%	≥ 75%	≥ 75%	≥ 75%	mortality at 30 ppm ([3]; comparative experiment C.4): 100%; mortality at 300 ppm [5]: ≥ 75%; mortality at 90 ppm [2, 6]: 100%; mortality at 90 ppm [4]: 100%
CC(NC(=O)c1cc(C(F)(F)F)cc(C(F)(F)F)c1)c1nccc(Cl)c1-n1cc([S+](C)[O-])cn1 (stereo not drawn) [I-28, N-[1-[4-chloro-3-(4-methylsulfinylpyrazol-1-yl)-2-pyridyl]ethyl]-3,5-bis(trifluoromethyl)benzamide]	≥ 75%		≥ 75%		mortality at 300 ppm [5]: ≥ 75%
CC(NC(=O)c1cc(C(F)(F)F)cc(C(F)(F)F)c1)c1nccnc1-n1ncc(-c2ccn(C)n2)n1 (stereo not drawn) [I-29, N-[1-[3-[4-(1-methylpyrazol-3-yl)triazol-2-yl]pyrazin-2-yl]ethyl]-3,5-bis(trifluoromethyl)benzamide]	≥ 75%	≥ 75%	≥ 75%	≥ 75%	mortality at 2500 ppm [3, 7]: 100%; mortality at 90 ppm [2, 8]: 100%
CSc1cnn(-c2c(Cl)ccnc2C(C)NC(=O)c2cc(C(F)(F)F)cc(C(F)(F)F)c2)c1 (stereo not drawn) [I-26, N-[1-[4-chloro-3-(4-methylsulfanylpyrazol-1-yl)-2-pyridyl]ethyl]-3,5-bis(trifluoromethyl)benzamide]		≥ 75%	≥ 75%	≥ 75%	mortality at 300 ppm [5]: ≥ 75%
CC(NC(=O)c1cc(Cl)cc(S(C)(=O)=O)c1)c1nccnc1-n1ncc(-c2ccccn2)n1 (stereo not drawn) [I-73]	≥ 75%	≥ 75%	≥ 75%	≥ 75%	mortality at 274 ppm [1]: 100%; mortality at 9.9 ppm ([2]; Anthonomus grandis): 100%
CC[S+]([O-])c1cnn(-c2nccnc2C(C)NC(=O)c2cc(C(F)(F)F)cc(C(F)(F)F)c2)c1 (stereo not drawn) [I-58]	≥ 75%	≥ 75%	≥ 75%	≥ 75%	mortality at 90 ppm ([1]; comparative experiment C.7): 100%; mortality at 90 ppm [2, 10]: 100%
CC(NC(=O)c1cc(C(F)(F)F)cc(C(F)(F)F)c1)c1nccnc1-n1cc(SC(F)(F)F)cn1 (stereo not drawn) [I-60, 3,5-bis(trifluoromethyl)-N-[1-[3-[4-(trifluoromethyl-sulfanyl)pyrazol-1-yl]pyrazin-2-yl]ethyl]benzamide]		≥ 75%	≥ 75%	≥ 75%	mortality at 300 ppm [5]: ≥ 75%
CC(NC(=O)c1cc(C(F)(F)F)cc(C(F)(F)F)c1)c1nccnc1-n1cc(S(=O)(=O)C(C)C)cn1 (stereo not drawn) [I-67, N-[1-[3-(4-isopropylsulfonylpyrazol-1-yl)pyrazin-2-yl]ethyl]-3,5-bis(tri-fluoromethyl)benzamide]	≥ 75%	≥ 75%	≥ 75%	≥ 75%	
Cc1cnn(-c2nccnc2C(C)NC(=O)c2cc(C(F)(F)F)cc(C(F)(F)F)c2)n1 (stereo not drawn) [WO2021/037614 P1, reference compound]					mortality at 30 ppm ([3]; comparative experiment C.1): 25%; mortality at 90 ppm ([1]; comparative experiment C.1): 25%
CC(NC(=O)c1cc(C(F)(F)F)cc(C(F)(F)F)c1)c1nccnc1-n1cc(S(=O)(=O)C(F)(F)F)cn1 (stereo not drawn) [I-55, 3,5-bis(trifluoromethyl)-N-[1-[3-[4-(trifluoromethylsulfonyl)pyrazol-1-yl]pyrazin-2-yl]ethyl]benzamide]		≥ 75%	≥ 75%	≥ 75%	mortality at 100 ppm [1]: 100%; mortality at 90 ppm ([2]; Anthonomus grandis, 90 ppm, comparative experiment C.6): 100%
CC(NC(=O)c1cc(C(F)(F)F)cc(C(F)(F)F)c1)c1nccnc1-n1cc([S+]([O-])C(C)C)cn1 (stereo not drawn) [I-69, N-[1-[3-(4-isopropylsulfinylpyrazol-1-yl)pyrazin-2-yl]ethyl]-3,5-bis(trifluoromethyl)benzamide]	≥ 75%	≥ 75%	≥ 75%	≥ 75%	
CC(NC(=O)c1cc(C(F)(F)F)cc(C(F)(F)F)c1)c1nccnc1-n1cc(Cl)cn1 (stereo not drawn) [WO2021/069575 I-96, reference compound]					mortality at 2500 ppm ([3]; comparative experiment C.5, read-out: B.6, 2500 ppm (mortality)): 0%; mortality at 90 ppm ([2]; Anthonomus grandis, 90 ppm, comparative experiment C.5): 50%; mortality at 80 ppm ([4]; 80 ppm, comparative experiment C.5, read-out: B.5, 80 ppm (mortality)): 0%
Cc1cn(-c2nccnc2C(C)NC(=O)c2cc(C(F)(F)F)cc(C(F)(F)F)c2)nn1 (stereo not drawn) [WO2021/037614 P41, reference compound]					mortality at 90 ppm ([3]; 90 ppm, comparative experiment C.3): 0%; mortality at 30 ppm ([2]; Anthonomus grandis, 30 ppm, comparative experiment C.3): 0%
CC(NC(=O)c1cc(C(F)(F)F)cc(C(F)(F)F)c1)c1nccnc1-n1cc(S(=O)(=O)C2CC2)cn1 (stereo not drawn) [I-65, N-[1-[3-(4-cyclopropylsulfonylpyrazol-1-yl)pyrazin-2-yl]ethyl]-3,5-bis(trifluoromethyl)benzamide]	≥ 75%	≥ 75%	≥ 75%	≥ 75%	
CC(C)Sc1cnn(-c2nccnc2C(C)NC(=O)c2cc(C(F)(F)F)cc(C(F)(F)F)c2)c1 (stereo not drawn) [I-48, N-[1-[3-(4-isopropylsulfanylpyrazol-1-yl)pyrazin-2-yl]ethyl]-3,5-bis(trifluoromethyl)benzamide]		≥ 75%	≥ 75%		mortality at 90 ppm ([1]; comparative experiment C.7): 100%; mortality at 300 ppm [5]: ≥ 75%; mortality at 90 ppm [2, 10]: 100%
CC(NC(=O)c1cc(C(F)(F)F)cc(C(F)(F)F)c1)c1nccc(F)c1-n1cc(S(C)(=O)=O)cn1 (stereo not drawn) [I-53, N-[1-[4-fluoro-3-(4-methylsulfonylpyrazol-1-yl)-2-pyridyl]ethyl]-3,5-bis(trifluoromethyl)benzamide]		≥ 75%	≥ 75%	≥ 75%	
